Measurements published in PubChem BioAssay AID1259407 (Chemical Carcinogenesis Research Information System (CCRIS), 2018).
Calls of active or inactive are those of the source. The rule behind the calls is not given here.

Test system: CCRIS mutagenicity, Ames/micronucleus/aberration tests
Assay: CCRIS mutagenicity studies
[1] = Test System: AMES SALMONELLA TYPHIMURIUM, Strain/Indicator: TA98, Metabolic Activation: NONE, Method: STANDARD PLATE
[2] = Test System: AMES SALMONELLA TYPHIMURIUM, Strain/Indicator: TA98, Metabolic Activation: RAT, LIVER, S-9, AROCLOR 1254, Method: STANDARD PLATE
[3] = Test System: AMES SALMONELLA TYPHIMURIUM, Strain/Indicator: TA98, Metabolic Activation: S-9, Method: STANDARD PLATE
[4] = Test System: AMES SALMONELLA TYPHIMURIUM, Strain/Indicator: TA100, Metabolic Activation: NONE, Method: STANDARD PLATE
[5] = Test System: AMES SALMONELLA TYPHIMURIUM, Strain/Indicator: TA100, Metabolic Activation: RAT, LIVER, S-9, AROCLOR 1254, Method: STANDARD PLATE
[6] = Test System: AMES SALMONELLA TYPHIMURIUM, Strain/Indicator: TA100, Metabolic Activation: S-9, Method: STANDARD PLATE
[7] = Test System: AMES SALMONELLA TYPHIMURIUM, Strain/Indicator: TA1537, Metabolic Activation: NONE, Method: STANDARD PLATE
[8] = Test System: AMES SALMONELLA TYPHIMURIUM, Strain/Indicator: TA98, Metabolic Activation: NONE, Method: PREINCUBATION

Compound: Nc1ccc(/C=C\c2ccc([N+](=O)[O-])cc2)cc1
- mutagenic call (Test System: AMES SALMONELLA TYPHIMURIUM, Strain/Indicator: TA98(1,8-DNP6), Metabolic Activation: NONE, Method: STANDARD PLATE): inactive; negative
- mutagenic call (Test System: AMES SALMONELLA TYPHIMURIUM, Strain/Indicator: TA98(1,8-DNP6), Metabolic Activation: S-9, Method: STANDARD PLATE): active; positive
- mutagenic call [1]: active; positive
- mutagenic call [2]: active; positive
- mutagenic call [3]: active; positive
- mutagenic call [4]: inactive; negative
- mutagenic call [5]: active; positive
- mutagenic call [6]: active; positive

Compound: O=[N+]([O-])c1ccc(/C=C/c2ccc([N+](=O)[O-])cc2)cc1
- mutagenic call (Test System: AMES SALMONELLA TYPHIMURIUM, Strain/Indicator: TA98 (NR), Metabolic Activation: NONE, Method: STANDARD PLATE): active; positive
- mutagenic call (Test System: AMES SALMONELLA TYPHIMURIUM, Strain/Indicator: TA98 (NR), Metabolic Activation: S-9, Method: STANDARD PLATE): inactive; negative
- mutagenic call [1]: active; positive
- mutagenic call [3]: active; positive
- mutagenic call (Test System: AMES SALMONELLA TYPHIMURIUM, Strain/Indicator: TA100 (NR), Metabolic Activation: NONE, Method: STANDARD PLATE): inactive; negative
- mutagenic call (Test System: AMES SALMONELLA TYPHIMURIUM, Strain/Indicator: TA100 (NR), Metabolic Activation: S-9, Method: STANDARD PLATE): inactive; negative
- mutagenic call [4]: active; positive
- mutagenic call [6]: active; positive

Compound: Cc1cc(Cl)ccc1N
- mutagenic call (End Point: IN VITRO CHROMOSOMAL ABERRATIONS, Test System: CHINESE HAMSTER OVARY CELLS, Metabolic Activation: NONE): inactive; negative; authors report that the study may not have allowed sufficient time for
- mutagenic call (End Point: IN VITRO CHROMOSOMAL ABERRATIONS, Test System: CHINESE HAMSTER OVARY CELLS, Metabolic Activation: RAT, LIVER, S-9, AROCLOR 1254): active; positive
- mutagenic call [1]: inactive; negative
- mutagenic call [2]: active; positive
- mutagenic call (Test System: AMES SALMONELLA TYPHIMURIUM, Strain/Indicator: TA98, Metabolic Activation: RAT, LIVER, S-9, CLOPHEN A50, Method: STANDARD PLATE): active; positive
- mutagenic call [4]: inactive; negative
- mutagenic call [5]: inactive; negative
- mutagenic call (Test System: AMES SALMONELLA TYPHIMURIUM, Strain/Indicator: TA100, Metabolic Activation: RAT, LIVER, S-9, CLOPHEN A50, Method: STANDARD PLATE): active; positive
- mutagenic call (Test System: AMES SALMONELLA TYPHIMURIUM, Strain/Indicator: TA1535, Metabolic Activation: NONE, Method: STANDARD PLATE): inactive; negative
- mutagenic call (Test System: AMES SALMONELLA TYPHIMURIUM, Strain/Indicator: TA1535, Metabolic Activation: RAT, LIVER, S-9, CLOPHEN A50, Method: STANDARD PLATE): inactive; negative
- mutagenic call [7]: inactive; negative
- mutagenic call (Test System: AMES SALMONELLA TYPHIMURIUM, Strain/Indicator: TA1537, Metabolic Activation: RAT, LIVER, S-9, CLOPHEN A50, Method: STANDARD PLATE): inactive; negative

Compound: CSC(C)(C)C(=O)N[C@@H](CS)C(=O)O
- mutagenic call [8]: inactive; negative
- mutagenic call (Test System: AMES SALMONELLA TYPHIMURIUM, Strain/Indicator: TA100, Metabolic Activation: NONE, Method: PREINCUBATION): inactive; negative
- mutagenic call (Test System: AMES SALMONELLA TYPHIMURIUM, Strain/Indicator: TA1535, Metabolic Activation: NONE, Method: PREINCUBATION): inactive; negative
- mutagenic call (Test System: AMES SALMONELLA TYPHIMURIUM, Strain/Indicator: TA1537, Metabolic Activation: NONE, Method: PREINCUBATION): inactive; negative
- mutagenic call (Test System: AMES SALMONELLA TYPHIMURIUM, Strain/Indicator: TA1538, Metabolic Activation: NONE, Method: PREINCUBATION): inactive; negative
- mutagenic call (Test System: E. COLI, Strain/Indicator: WP2, Metabolic Activation: NONE, Method: PREINCUBATION): inactive; negative
- mutagenic call (Test System: E. COLI, Strain/Indicator: WP2 UVRA, Metabolic Activation: NONE, Method: PREINCUBATION): inactive; negative

Compound: CC(C)NCC(O)COc1cccc2[nH]ccc12 (stereo unspecified)
- mutagenic call (Test System: AMES SALMONELLA TYPHIMURIUM, Strain/Indicator: TA98, Metabolic Activation: NONE): inactive; negative
- mutagenic call (Test System: AMES SALMONELLA TYPHIMURIUM, Strain/Indicator: TA98, Metabolic Activation: RAT, LIVER, S-9, AROCLOR 1254): inactive; negative
- mutagenic call (Test System: AMES SALMONELLA TYPHIMURIUM, Strain/Indicator: TA100, Metabolic Activation: NONE): inactive; negative
- mutagenic call (Test System: AMES SALMONELLA TYPHIMURIUM, Strain/Indicator: TA100, Metabolic Activation: RAT, LIVER, S-9, AROCLOR 1254): inactive; negative
- mutagenic call (Test System: AMES SALMONELLA TYPHIMURIUM, Strain/Indicator: TA1535, Metabolic Activation: NONE): inactive; negative
- mutagenic call (Test System: AMES SALMONELLA TYPHIMURIUM, Strain/Indicator: TA1535, Metabolic Activation: RAT, LIVER, S-9, AROCLOR 1254): inactive; negative
- mutagenic call (Test System: AMES SALMONELLA TYPHIMURIUM, Strain/Indicator: TA1537, Metabolic Activation: NONE): inactive; negative
- mutagenic call (Test System: AMES SALMONELLA TYPHIMURIUM, Strain/Indicator: TA1537, Metabolic Activation: RAT, LIVER, S-9, AROCLOR 1254): inactive; negative

Compound: COc1ccc2c(OC)c3ccoc3nc2c1OC
- mutagenic call (Test System: AMES SALMONELLA TYPHIMURIUM, Strain/Indicator: TA98, Metabolic Activation: RAT, LIVER, MICROSOMES, PHENOBARBITAL, Method: STANDARD PLATE): active; positive
- mutagenic call (Test System: AMES SALMONELLA TYPHIMURIUM, Strain/Indicator: TA98, Metabolic Activation: RAT, LIVER, S-9, PHENOBARBITAL, Method: STANDARD PLATE): active; positive
- mutagenic call (Test System: AMES SALMONELLA TYPHIMURIUM, Strain/Indicator: TA100, Metabolic Activation: RAT, LIVER, MICROSOMES, PHENOBARBITAL, Method: STANDARD PLATE): active; positive
- mutagenic call (Test System: AMES SALMONELLA TYPHIMURIUM, Strain/Indicator: TA100, Metabolic Activation: RAT, LIVER, S-9, PHENOBARBITAL, Method: STANDARD PLATE): active; positive
- mutagenic call (Test System: AMES SALMONELLA TYPHIMURIUM, Strain/Indicator: TA1535, Metabolic Activation: RAT, LIVER, MICROSOMES, PHENOBARBITAL, Method: STANDARD PLATE): inactive; negative
- mutagenic call (Test System: AMES SALMONELLA TYPHIMURIUM, Strain/Indicator: TA1538, Metabolic Activation: RAT, LIVER, MICROSOMES, PHENOBARBITAL, Method: STANDARD PLATE): inactive; negative

Compound: O=[N+]([O-])c1ccc(-c2ccccc2)c([N+](=O)[O-])c1
- mutagenic call [8]: active; positive
- mutagenic call (Test System: AMES SALMONELLA TYPHIMURIUM, Strain/Indicator: TA98, Metabolic Activation: RAT, LIVER, S-9, PCB (10%), Method: PREINCUBATION): active; positive

Compound: Cc1cc([N+](=O)[O-])c(C)c2c1[nH]c1ccc([N+](=O)[O-])cc12
- mutagenic call [1]: active; positive
- mutagenic call (Test System: AMES SALMONELLA TYPHIMURIUM, Strain/Indicator: TA98, Metabolic Activation: RAT LIVER S-9, AROCLOR 1254, Method: STANDARD PLATE): active; positive
- mutagenic call [4]: active; positive
- mutagenic call (Test System: AMES SALMONELLA TYPHIMURIUM, Strain/Indicator: TA100, Metabolic Activation: RAT LIVER S-9, AROCLOR 1254, Method: STANDARD PLATE): active; positive
- mutagenic call [7]: active; positive
- mutagenic call (Test System: AMES SALMONELLA TYPHIMURIUM, Strain/Indicator: TA1537, Metabolic Activation: RAT LIVER S-9, AROCLOR 1254, Method: STANDARD PLATE): active; positive
- mutagenic call (Test System: AMES SALMONELLA TYPHIMURIUM, Strain/Indicator: TA1977, Metabolic Activation: NONE, Method: STANDARD PLATE): active; positive
- mutagenic call (Test System: AMES SALMONELLA TYPHIMURIUM, Strain/Indicator: TA1977, Metabolic Activation: RAT LIVER S-9, AROCLOR 1254, Method: STANDARD PLATE): active; positive

Compound: CC(Br)c1ccccc1 (stereo unspecified)
- mutagenic call [1]: inactive; negative
- mutagenic call [4]: inactive; negative
